From ChEMBL document CHEMBL4613322, “HOPPI-NMR: Hot-Peptide-Based Screening Assay for Inhibitors of Protein-Protein Interactions by NMR” (ACS Med Chem Lett, 2020)
Converted amounts (≈) assume the structure as drawn. Blank lines part the entries; values can stand above or below the compound they belong to. Peptide text beside a SMILES is read from it.

Tests used:
[1] = target: T1, AP-1 complex subunit beta-1 (Homo sapiens, UniProt Q10567); test: Binding affinity to beta-adaptin 1 (unknown origin) by fluorescence polarization assay
T1 sequence (Q10567 whole entry): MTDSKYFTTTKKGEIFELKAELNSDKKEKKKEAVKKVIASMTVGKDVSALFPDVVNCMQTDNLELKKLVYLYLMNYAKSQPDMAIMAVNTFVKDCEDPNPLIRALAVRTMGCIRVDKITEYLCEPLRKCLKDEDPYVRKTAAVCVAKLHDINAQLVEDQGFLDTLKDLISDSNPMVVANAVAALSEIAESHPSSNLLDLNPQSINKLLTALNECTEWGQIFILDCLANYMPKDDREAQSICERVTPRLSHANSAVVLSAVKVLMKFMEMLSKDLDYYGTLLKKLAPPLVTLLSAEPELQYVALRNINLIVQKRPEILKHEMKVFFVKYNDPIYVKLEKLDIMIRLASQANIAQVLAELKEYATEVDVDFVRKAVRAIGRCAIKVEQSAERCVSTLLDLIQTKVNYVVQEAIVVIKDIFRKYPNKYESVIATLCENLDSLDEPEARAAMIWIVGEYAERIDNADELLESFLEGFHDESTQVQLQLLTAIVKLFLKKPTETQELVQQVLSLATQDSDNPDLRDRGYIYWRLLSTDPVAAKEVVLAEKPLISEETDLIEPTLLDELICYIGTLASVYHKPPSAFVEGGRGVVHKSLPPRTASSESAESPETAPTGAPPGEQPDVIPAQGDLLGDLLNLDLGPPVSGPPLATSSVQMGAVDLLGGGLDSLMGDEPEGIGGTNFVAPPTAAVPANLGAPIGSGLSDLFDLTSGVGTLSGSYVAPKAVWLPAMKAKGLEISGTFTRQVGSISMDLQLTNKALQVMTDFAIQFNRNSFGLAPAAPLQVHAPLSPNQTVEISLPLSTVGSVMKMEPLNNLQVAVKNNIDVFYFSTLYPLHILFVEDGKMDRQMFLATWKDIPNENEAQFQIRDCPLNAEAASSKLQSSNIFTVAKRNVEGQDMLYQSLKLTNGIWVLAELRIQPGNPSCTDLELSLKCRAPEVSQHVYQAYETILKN

Estrogen receptor = target: T2, Estrogen receptor (Homo sapiens, UniProt P03372); test: Binding affinity to IPTG-induced human ER alpha LBD (301 to 553 residues) expressed in Escherichia coli BL21 (DE3) assessed as inhibition of ER alpha/NR2A protein-protein interaction at 25 degree by surface plasmon resonance assay
T2 sequence (P03372 whole entry): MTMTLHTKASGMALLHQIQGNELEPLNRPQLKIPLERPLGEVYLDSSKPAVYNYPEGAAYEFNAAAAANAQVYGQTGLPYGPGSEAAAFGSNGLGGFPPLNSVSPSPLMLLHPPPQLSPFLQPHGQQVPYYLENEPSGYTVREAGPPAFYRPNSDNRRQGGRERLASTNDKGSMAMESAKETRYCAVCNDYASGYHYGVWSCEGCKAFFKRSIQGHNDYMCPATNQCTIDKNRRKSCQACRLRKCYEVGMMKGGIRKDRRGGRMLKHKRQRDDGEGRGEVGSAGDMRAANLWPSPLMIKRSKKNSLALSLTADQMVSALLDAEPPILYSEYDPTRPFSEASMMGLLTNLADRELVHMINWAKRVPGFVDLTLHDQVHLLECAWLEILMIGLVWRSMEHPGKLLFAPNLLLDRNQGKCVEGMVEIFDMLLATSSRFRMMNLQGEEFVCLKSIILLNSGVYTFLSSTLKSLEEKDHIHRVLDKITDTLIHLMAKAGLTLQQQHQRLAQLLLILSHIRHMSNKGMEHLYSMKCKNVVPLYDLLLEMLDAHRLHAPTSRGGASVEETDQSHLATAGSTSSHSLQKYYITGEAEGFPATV

Bcl-2-like protein 1 = Bcl-2-like protein 1 (Mus musculus, UniProt Q64373); test: Binding affinity to BCL-xl in murine B-cell lymphoma assessed as inhibition of BCL-xl/Bax protein-protein interaction
[2] = target: T3, BTB/POZ domain-containing protein KCTD11 (Homo sapiens, UniProt Q693B1); test: Binding affinity to recombinant N-terminal poly His-Trx tagged KCTD11 (15 to 115 residues) (unknown origin) expressed in Escherichia coli assessed as inhibition of KCTD11/cullin3a protein-protein interaction by fluorescence polarization assay
T3 sequence (Q693B1 whole entry): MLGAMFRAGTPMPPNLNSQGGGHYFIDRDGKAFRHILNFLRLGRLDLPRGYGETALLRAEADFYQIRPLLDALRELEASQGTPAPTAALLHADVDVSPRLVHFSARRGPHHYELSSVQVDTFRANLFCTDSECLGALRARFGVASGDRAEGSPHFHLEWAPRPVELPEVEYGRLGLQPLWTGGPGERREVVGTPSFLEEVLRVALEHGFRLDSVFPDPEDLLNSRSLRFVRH

[3] = Solubility of compound in PBS; type: physicochemical

Bcl-2-like protein 1, sequence (Q64373 whole entry, the tested form may be a part): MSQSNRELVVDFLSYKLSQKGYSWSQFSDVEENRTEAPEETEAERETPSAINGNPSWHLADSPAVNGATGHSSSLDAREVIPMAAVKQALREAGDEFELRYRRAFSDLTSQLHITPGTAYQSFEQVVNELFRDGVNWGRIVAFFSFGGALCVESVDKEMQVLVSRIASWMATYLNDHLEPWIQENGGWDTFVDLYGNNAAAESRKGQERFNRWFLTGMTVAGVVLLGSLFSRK

SMILES: CC[C@H](C)[C@H](NC(=O)[C@H](CCCCN)NC(=O)[C@@H](N)Cc1cnc[nH]1)C(=O)N[C@@H](CC(C)C)C(=O)N[C@@H](Cc1cnc[nH]1)C(=O)N[C@@H](CCCNC(=N)N)C(=O)N[C@@H](CC(C)C)C(=O)N[C@@H](CC(C)C)C(=O)N[C@@H](CCC(N)=O)C(=O)N[C@@H](CC(=O)O)C(=O)N[C@@H](CO)C(=O)O (H-HKILHRLLQDS-OH)
Kd (Estrogen receptor): 2500 nM

SMILES: CSCC[C@H](NC(=O)[C@@H](NC(=O)[C@H](Cc1ccc(O)cc1)NC(=O)[C@H](C)NC(=O)[C@H](CC(N)=O)NC(=O)[C@H](CCCNC(=N)N)NC(=O)[C@H](Cc1ccc(O)cc1)NC(=O)[C@H](CC(C)C)NC(=O)[C@H](CCC(=O)O)NC(=O)[C@H](CCC(=O)O)NC(=O)[C@H](Cc1ccccc1)NC(=O)[C@H](CO)NC(=O)[C@H](CC(C)C)NC(=O)CNC(=O)[C@H](CO)NC(=O)[C@@H](N)CC(N)=O)[C@@H](C)O)C(=O)N[C@H](C(=O)N[C@@H](CC(C)C)C(=O)N[C@@H](Cc1cnc[nH]1)C(=O)N[C@@H](CCCCN)C(=O)O)C(C)C (H-NSGLSFEELYRNAYTMVLHK-OH)
Kd [2]: 497 nM

SMILES: COc1ccc(C2=N[C@@H](c3ccc(Cl)cc3)[C@@H](c3ccc(Cl)cc3)N2C(=O)N2CCNC(=O)C2)c(OC(C)C)c1 [NUTLIN-3]
solubility [3]: 100 µM (≈ 58.2 µg/mL)

Further lines, results first:

Kd [1]: 2100 nM
SMILES: CC[C@H](C)[C@H](NC(=O)[C@H](CC(=O)O)NC(=O)[C@H](CC(=O)O)NC(=O)[C@@H](N)CC(=O)O)C(=O)N[C@H](C(=O)N[C@@H](Cc1ccccc1)C(=O)N[C@@H](CCC(=O)O)C(=O)N[C@@H](CC(=O)O)C(=O)N[C@@H](Cc1ccccc1)C(=O)N[C@@H](C)C(=O)N[C@@H](CCCNC(=N)N)C(=O)N[C@@H](CCC(N)=O)C(=O)N[C@@H](CCCNC(=N)N)C(=O)N[C@@H](CC(C)C)C(=O)N[C@@H](CCCCN)C(=O)NCC(=O)N[C@@H](CCSC)C(=O)N[C@@H](CCCCN)C(=O)N[C@@H](CC(=O)O)C(=O)N[C@@H](CC(=O)O)C(=O)O)C(C)C (H-DDDIVFEDFARQRLKGMKDD-OH)

Kd (Bcl-2-like protein 1): 13000 nM
SMILES: CC[C@H](C)[C@H](NC(=O)[C@H](CCCN=C(N)N)NC(=O)[C@H](CCCCN)NC(=O)[C@H](CC(C)C)NC(=O)[C@H](CS)NC(=O)[C@H](CCC(=O)O)NC(=O)[C@H](CO)NC(=O)[C@H](CC(C)C)NC(=O)[C@H](CCCCN)NC(=O)[C@@H](N)CCCCN)C(=O)NCC(=O)N[C@@H](CC(=O)O)C(=O)N[C@@H](CCC(=O)O)C(=O)N[C@@H](CC(C)C)C(=O)N[C@@H](CC(=O)O)C(=O)N[C@@H](CO)C(=O)O (H-KKLSECLKRIGDELDS-OH)
